Data taken from patent US7511041B2, “Fused azole-pyrimidine derivatives” (Bayer Pharmaceuticals Corporation, priority 2002, dated 2009).
Where a name gives a salt, the structure may show the parent alone. Read-outs that look alike come from different tables or passages of the source.

Assays:
[1] = target: T1, Recombinant human PI3Kγ (full length human PI3K p110γ) (Homo sapiens, UniProt P48736); experiment: Kinase assay of PI3Kγ (solid-phase lipid kinase assay); type: biochemical
T1 construct: full length human PI3K p110γ fused with a His6-tag at the C-terminus; His6 (C); purchased ALEXIS BIOCHEMICALS #201-055-C010; host or cells: S. frugiperda 9 insect cells
Excerpt: [Determination of IC50 Values of Compounds in Kinase Assay of PI3Kγ]
Chemicals and Assay Materials
LABORATORIES (Toronto, Canada). Recombinant human PI3Kγ (full length human PI3K p110γ fused with a His6-tag at the C-terminus expressed in S. frugiperda 9 insect cells) was obtained from ALEXIS BIOCHEMICALS (#201-055-C010; San Diego, Calif.). […] BIOTECH (Buckinghamshire, UK) and ROCHE DIAGNOSTICS (Mannheim, Germany), respectively. Scintillation cocktails and MicroScint PS™ were purchased from PACKARD (Meriden, Conn.). Maxisorp™ plates were purchased from NALGE NUNC INTERNATIONAL K.K. (Tokyo, Japan). All other chemicals not further specified were from WAKO PURE CHEMICALS (Osaka, Japan).
Solid-Phase Lipid Kinase Assay
The plates were subsequently air-dried by incubation for at least 2 hours in a fume hood. The reaction was set up by mixing 25 μl/well of assay buffer 2× (100 mM MOPSO/NaOH, 0.2 M NaCl, pH 7.0, 8 mM MgCl2, 2 mg/ml BSA (fatty acid-free)) and 50 ng/well PI3Kγ in the lipid pre-coated plate and 10× test compounds were added in 2% DMSO. The reaction was started by adding 20 μl/well of ATP mix (final 10 μM ATP; 0.05 μCi/well [γ^33P]ATP). After incubation at RT for 2 hours, the reaction was terminated by adding 50 μl/well stop solution (50 mM EDTA, pH 8.0). The plate was then washed twice with Tris-buffered saline (TBS, pH 7.4). MicroScint PS™ (PACKARD) scintillation mix was added at 100 μl/well, and radioactivity was counted by using a TopCount™ (PACKARD) scintillation counter.
The inhibition percent at each concentration of compound was calculated, and IC50 values were determined from the inhibition of curve.

[2] = Table 1, isozyme not given, read-out: in vitro
[3] = in vitro PI3K-γ inhibitory activity, class symbols A-D, read-out: in vitro PI3K-gamma

T1 sequence (P48736 whole entry, the tested form may be a part): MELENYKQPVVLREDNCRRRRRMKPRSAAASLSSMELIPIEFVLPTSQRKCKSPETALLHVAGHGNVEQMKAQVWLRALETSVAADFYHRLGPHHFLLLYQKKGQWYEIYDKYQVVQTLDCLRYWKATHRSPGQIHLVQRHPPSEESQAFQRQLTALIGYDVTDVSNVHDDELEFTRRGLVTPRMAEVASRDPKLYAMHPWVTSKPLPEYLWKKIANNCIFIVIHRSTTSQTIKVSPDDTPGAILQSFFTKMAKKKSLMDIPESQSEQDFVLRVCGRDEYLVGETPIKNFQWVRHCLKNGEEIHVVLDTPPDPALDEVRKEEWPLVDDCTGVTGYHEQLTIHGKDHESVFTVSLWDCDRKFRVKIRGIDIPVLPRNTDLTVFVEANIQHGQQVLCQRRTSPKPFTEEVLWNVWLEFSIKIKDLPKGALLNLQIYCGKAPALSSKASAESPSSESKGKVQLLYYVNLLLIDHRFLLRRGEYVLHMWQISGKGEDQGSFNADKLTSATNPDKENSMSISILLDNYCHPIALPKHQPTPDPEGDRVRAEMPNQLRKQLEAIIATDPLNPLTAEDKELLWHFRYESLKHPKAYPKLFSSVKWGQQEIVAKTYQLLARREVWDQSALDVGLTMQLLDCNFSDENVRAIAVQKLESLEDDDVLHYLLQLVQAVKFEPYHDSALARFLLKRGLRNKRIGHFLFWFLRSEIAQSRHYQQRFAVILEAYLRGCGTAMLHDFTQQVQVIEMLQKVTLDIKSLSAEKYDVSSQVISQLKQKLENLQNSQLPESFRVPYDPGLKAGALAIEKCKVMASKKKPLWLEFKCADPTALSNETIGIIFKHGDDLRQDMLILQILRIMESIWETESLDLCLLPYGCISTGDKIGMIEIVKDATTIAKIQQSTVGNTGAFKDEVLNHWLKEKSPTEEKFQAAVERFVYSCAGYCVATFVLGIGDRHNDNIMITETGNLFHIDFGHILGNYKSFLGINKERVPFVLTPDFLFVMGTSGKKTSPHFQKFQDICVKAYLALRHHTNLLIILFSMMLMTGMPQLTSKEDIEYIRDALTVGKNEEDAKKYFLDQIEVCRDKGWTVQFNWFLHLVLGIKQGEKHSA

| Compound | melting point | other results |
| --- | --- | --- |
| CCNc1ccc(/C(O)=C/C2=Nc3cc(OC)c(OC)cc3C3=NCCN23)cn1 [Example 1-53] |  | IC50 [1, 2]: 0.1 to 0.5 µM |
| COc1cc2c(cc1OC)C1=NCCN1C(NC(=O)c1cccnc1)=N2 [Example 2-53] |  | IC50 ([1]; in vitro PI3K-γ inhibitory activity, class symbols, read-out: in vitro PI3K-gamma): 0.1 to 0.5 µM |
| CC(C)(C)OC(=O)N1CCC(C(=O)NC2=Nc3ccccc3C3=NCCN23)CC1 [Example 2-340] |  | IC50 [1, 3]: > 2 µM |
| COc1cc2c(cc1OC)C1=NCCN1C(NC(=O)c1ccccc1)=N2 [Example 2-342] |  | IC50 [1, 3]: 0.5 to 2 µM |
| COc1c(OCCCC(=O)O)ccc2c1N=C(/C=C(\O)c1cccnc1)N1CCN=C21 (as salt: hydrochloride) [Example 1-7, 4-{[5-(2-Hydroxy-2-pyridin-3-ylvinyl)-7-methoxy-2,3-dihydroimidazo[1,2-c]quinazolin-8-yl]oxy}butanoic acid hydrochloride] | 249 to 251 °C |  |
| COc1ccc2c(c1OCCN1CCOCC1)N=C(/C=C(\O)c1cccnc1)N1CCN=C21.Cl [Example 1-37] | 215 °C |  |
| O/C(=C\C1=Nc2cc(C(F)(F)F)ccc2C2=NCCN12)c1cccnc1 [Example 1-188] |  | IC50 [1, 2]: 0.5 to 2 µM |
| COc1cc2c(c(OC)c1C)N=C(/C=C(\O)c1ccc3[nH]cnc3c1)N1CCN=C21.Cl [Example 1-67] | > 285 °C |  |
| Cl.O/C(=C\C1=Nc2cc(N3CCOCC3)ccc2C2=NCCN12)c1cncc(O)c1 [Example 1-99] | 312 °C (dec.) |  |
| COc1cc(OC)c2c(c1)C1=NCCN1C(/C=C(\O)c1cccnc1)=N2.Cl [Example 1-43] | 290 °C (dec.) |  |
| Cc1cc(Br)c2c(c1)C1=NCCN1C(/C=C(\O)c1ccc3[nH]cnc3c1)=N2.Cl [Example 1-48] | > 285 °C |  |
| COc1c(OCC(=O)N2CCOCC2)ccc2c1N=C(/C=C(\O)c1cccnc1)N1CCN=C21.Cl [Example 1-30] | 240 to 241 °C |  |
| COc1ccc2c(c1OC)N=C(/C=C(\O)c1cccnc1)N1CCN=C21.Cl [Example 1-11] | 249 to 250 °C |  |
| COc1c(OCCO)ccc2c1N=C(/C=C(\O)c1cccnc1)N1CCN=C21.Cl [Example 1-17] | 215 °C (dec.) |  |
| COc1c(OCc2nn[nH]n2)ccc2c1N=C(/C=C(\O)c1cccnc1)N1CCN=C21.Cl [Example 1-197] | 217 to 218 °C |  |
| CC(=O)Nc1ccc(/C(O)=C/C2=Nc3c(CN4CCOCC4)cccc3C3=NCCN23)cn1.Cl [Example 1-209] | > 260 °C |  |

| Compound | melting point | other results |
| --- | --- | --- |
| CC(=O)Nc1ccc(/C(O)=C/C2=Nc3cc(CN4CCOCC4)ccc3C3=NCCN23)cn1.Cl [Example 1-114] | 260 °C |  |
| COc1c(OCC(N)=O)ccc2c1N=C(/C=C(\O)c1cccnc1)N1CCN=C21.Cl [Example 1-24] | 235 °C (dec.) |  |
| Cc1ccc2c(c1OCCN1CCOCC1)N=C(/C=C(\O)c1cccnc1)N1CCN=C21.Cl [Example 1-40] | 256 °C (dec.) |  |
| O/C(=C\C1=Nc2ccc(Cl)cc2C2=NCCN12)c1cccnc1 [Example 1-130] | > 330 °C |  |
| Cl.O/C(=C\C1=Nc2ccccc2C2=NCCN12)c1ccco1 [Example 1-144] | > 300 °C |  |
| CCC(=O)NC1=Nc2ccccc2C2=NCCN12 [Example 2-327] |  | IC50 [1, 3]: > 2 µM |
| O=C(NC1=Nc2ccccc2C2=NCCN12)c1ccccn1.O=C(O)C(F)(F)F [Example 2-277] | 206 °C (dec.) |  |
| O=C(NC1=Nc2ccccc2C2=NCCN12)c1ccc([N+](=O)[O-])cc1.O=C(O)C(F)(F)F [Example 2-255] | 265 °C (dec.) |  |
| O=C(NC1=Nc2ccccc2C2=NCCN12)c1cccc([N+](=O)[O-])c1.O=C(O)C(F)(F)F [Example 2-253] | 238 to 239 °C |  |
| Cl.O/C(=C\C1=Nc2ccccc2C2=NCCN12)c1cccs1 [Example 1-147] | > 300 °C |  |
| Cl.O/C(=C\C1=Nc2c(Br)cccc2C2=NCCN12)c1cccnc1 [Example 1-74] | 246 °C |  |
| O=C(NC1=Nc2ccccc2C2=NCCN12)c1ccc(Cl)cc1.O=C(O)C(F)(F)F [Example 2-230] | 243 to 245 °C |  |
| CC(C)(C)OC(=O)N1CCCCC1C(=O)NC1=Nc2ccccc2C2=NCCN12 (stereo not shown) [Example 2-336] |  | IC50 [1, 3]: > 2 µM |
| COc1cc2c(cc1OC)C1=NCCN1C(/C=C(\O)c1sc(C)nc1C)=N2.Cl [Example 1-61] | 268 to 271 °C |  |
| Cl.O/C(=C\C1=Nc2cc(N3CCOCC3)ccc2C2=NCCN12)c1ccc2[nH]cnc2c1 [Example 1-101] | 286 °C (dec.) |  |
| Cl.O/C(=C\C1=Nc2c(cccc2C(F)(F)F)C2=NCCN12)c1cccnc1 [Example 1-81] | > 290 °C |  |

More lines, main results first:

| melting point | Compound | other results |
| --- | --- | --- |
| 270 °C (dec.) | Cc1nc2ncccc2cc1C(=O)NC1=Nc2ccccc2C2=NCCN12.Cl [Example 2-175] |  |
| 278 °C (dec.) | COc1ccc2c(c1OC)N=C(NC(=O)c1ccc3[nH]cnc3c1)N1CCN=C21.Cl [Example 2-50] |  |
| 238 °C | COc1cccc2c1N=C(NC(=O)c1ccc3[nH]cnc3c1)N1CCN=C21.Cl [Example 2-125] |  |
| 271 to 272 °C | CCn1nc(C)cc1C(=O)NC1=Nc2ccccc2C2=NCCN12.Cl [Example 2-192] |  |
| 310 °C (dec.) | Cl.O=C(NC1=Nc2ccccc2C2=NCCN12)c1csc(-c2cccnc2)n1 [Example 2-320] |  |
| 296 °C (dec.) | Cl.O=C(NC1=Nc2ccccc2C2=NCCN12)c1csc([N+](=O)[O-])c1 [Example 2-306] |  |
| 300 °C (dec.) | Cl.O=C(NC1=Nc2ccccc2C2=NCCN12)c1ccc([N+](=O)[O-])s1 [Example 2-304] |  |
| 267 °C (dec.) | Cc1ccc(C(=O)NC2=Nc3cc(N4CCOCC4)ccc3C3=NCCN23)cn1.Cl [Example 2-14] |  |
| 315 °C | Cc1ccc2c(c1)N=C(NC(=O)c1cccnc1)N1CCN=C21.Cl [Example 2-28] |  |
| 328 °C (dec.) | Cc1nc2ccccn2c1C(=O)NC1=Nc2ccccc2C2=NCCN12.Cl [Example 2-171] |  |
| 309 °C | Cl.O=C(NC1=Nc2ccc(Cl)cc2C2=NCCN12)c1cccnc1 [Example 2-85] |  |
| 313 °C (dec.) | Cc1cc(C(=O)NC2=Nc3ccccc3C3=NCCN23)cc(C)c1[N+](=O)[O-].Cl [Example 2-223] |  |
| 228 °C (dec.) | O=C(Nc1nc2ccccc2c2nccn12)c1cccnc1 (as salt: hydrochloride) [Example 4-2, N-Imidazo[1,2-c]quinazolin-5-ylnicotinamide hydrochloride] |  |
| 298 °C (dec.) | Cl.O=C(NC1=Nc2ccccc2C2=NCCN12)c1sccc1Cl [Example 2-181] |  |
| > 290 °C | Cc1cccc2c1N=C(NC(=O)c1ccc3[nH]cnc3c1)N1CCN=C21.Cl [Example 2-110] |  |
| 263 °C (dec.) | O/C(=C\c1nc2ccccc2c2nccn12)c1cccs1 (as salt: hydrochloride) [Example 3-1, (Z)-2-Imidazo[1,2-c]quinazolin-5-yl-1-(2-thienyl)ethenol] |  |
| 233 °C | COc1ccc2c(c1)N=C(NC(=O)c1ccc3[nH]cnc3c1)N1CCN=C21.Cl [Example 2-26] |  |
| 296 to 297 °C | Cl.O=C(NC1=Nc2ccccc2C2=NCCN12)c1cncc(O)c1 [Example 2-139] |  |
| 321 °C (dec.) | COc1cc(C(=O)NC2=Nc3ccccc3C3=NCCN23)cc(OC)c1C.Cl [Example 2-242] |  |
| 289 °C (dec.) | Cc1nc(N)ccc1C(=O)NC1=Nc2ccccc2C2=NCCN12.Cl [Example 2-158] |  |
| 309 °C (dec.) | Cl.O=C(NC1=Nc2ccccc2C2=NCCN12)c1ccc(-n2cccc2)cc1 [Example 2-267] |  |
| 311 °C (dec.) | Cc1cc(C(=O)NC2=Nc3ccccc3C3=NCCN23)cnc1N.Cl [Example 2-160] |  |
| 290 °C (dec.) | Cl.Nc1ccc(C(=O)NC2=Nc3ccccc3C3=NCCN23)cn1 [Example 2-150] |  |
| 225 °C (dec.) | COc1cccc2c1N=C(NC(=O)c1cc3cccnc3nc1C)N1CCN=C21.Cl [Example 2-127] |  |
| 275 to 277 °C | C=Cc1ccc2c(c1)C1=NCCN1C(NC(=O)c1cccnc1)=N2.Cl [Example 2-96] |  |
| 273 °C (dec.) | COc1ccc2c(c1)N=C(NC(=O)c1ccc(N)nc1)N1CCN=C21.Cl [Example 2-24] |  |
| 229 °C (dec.) | Cl.O=C(NC1=Nc2cc(OCCOCCO)ccc2C2=NCCN12)c1cccnc1 [Example 2-202] |  |
| 264 °C (dec.) | Cl.Cn1cccc1C(=O)NC1=Nc2ccccc2C2=NCCN12 [Example 2-297] |  |
| > 290 °C | Cc1cccc2c1N=C(NC(=O)c1cccnc1)N1CCN=C21.Cl [Example 2-108] |  |
